We go through one molecule from US20100040568A1, “Steroidal compounds as melanogenesis modifiers and uses thereof” (SkinMedica, Inc., priority 2008, published 2010).

For the test, the system named is Asian skin equivalent (MEL-A). The test can be described thus: MelanoDerm pigmentation assay, Asian skin equivalent. Format: cell-based, human. The source says: MelanoDerm™, made by MatTek Corp., is a viable reconstituted three-dimensional human skin equivalent containing normal melanocytes and keratinocytes that are derived from African-American (MEL-B), Asian (MEL-A) or Caucasian (MEL-C) donors. Both MEL-A and MEL-B tissues were used in the current study, and they were maintained in the NMM-113 medium as recommended by the manufacturer.
Tissues were taken out on Days 13 and 16 for the various assays. 30% ethanol: 70% propylene glycol was used as a negative control and the well-known pigmentation inhibitor, arbutin (at concentration of 3 mg/ml), was used as a positive control.
The experiments were repeated twice on both MEL-A and MEL-B tissues from different lots to make sure that the results are reproducible (study 1 or 2). For each experiment, six tissues were treated with conessine, and six were treated with […] (30% ethanol: 70% PEG) or arbutin if applicable. For MEL-B, on day 10, three tissues under each treatment condition were taken out, and one was used for histological studies and the other two were used for the melanin assay. The same protocol was followed with the MEL-B samples after 13 days' treatment and MEL-A after either 13 or 16 days' treatments.
Procedure 1: the effects of conessine on melanin synthesis in MEL-A or B were evaluated by light microscopy (views from the top surface of the tissue). Procedure 2: the distribution of melanin in the treated-MEL-A or B was accessed by image analysis using Fontana-Masson stained histological sections (views from the side of the tissue).
MelanoDerm™, made by MatTek Corp., is a viable reconstituted three-dimensional human skin equivalent containing normal melanocytes and keratinocytes that are derived from African-American (MEL-B), Asian (MEL-A) or Caucasian (MEL-C) donors. It has human skin-like structure and undergoes progressive tissue darkening over the course of 2-3 weeks. MelanoDerm™ provides a useful in vitro means for evaluation of agents that modulate pigmentation. Human skin equivalent models such as MelanoDerm™ provide an alternative to clinical and animal testing for evaluating the effects of putative bioactive compounds on mammalian pigmentation. MelanoDerm™ is considered a more physiologically relevant model than melanocytes alone or melanocyte-keratinocyte co-cultures. Both MEL-A and MEL-B tissues were used in the current study, and they were maintained in the NMM-113 medium as recommended by the manufacturer. In this model, substantial accumulation of newly synthesized melanin occurs over a two to three week period.
Conessine and Licorice extract were dissolved in 30% ethanol: 70% propylene glycol (PEG) to a final concentration of 0.036% (0.36 mg/ml). A 25 μl aliquot of each compound was applied topically to the Asian MelanoDerm™ tissue (MEL-A) on Days 0, 1, 3, 6, 8, 10 and 13. The MelanoDerm™ tissues were fed every other day with 5 ml fresh NMM-113. Prior to each application, the tissues were washed with 1 ml PBS to remove any residual test compound. Tissues were fixed on Days 13 and 16 for microscopic analysis and histological evaluation. In addition, duplicate tissues were frozen on Days 13 and 16 for melanin assay. 30% ethanol: 70% PEG was used as negative control. Cell viability was measured in accordance with the manufacturer's instructions using the MTT assay kit (MatTek Corp., Ashland, Mass. 01721). One MEL-A tissue from each condition was harvested on day 2 and 7, and MTT assay was performed. Similar experiments were performed on MEL-B.
Quantitative melanin assay was performed on the treated MEL-A tissues.

“Also recorded” adds a separate entry of the source.

Take `CC1C2CCC3C4CC=C5CC(N(C)C)CCC5(C)C4CCC32CN1C` (stereo not drawn) [Compound 1, Conessine]: the “decreased melanin content (quantitative melanin assay)” value (0.036% topical, both 13 and 16 days, compared to vehicle-treated) is 30-40%. The “melanin content compared to the vehicle-treated tissues (Fontana-Masson sections, quantitative analysis)” value is, setting by setting: (0.036% topical, day 13, 8 sections) 49.90%; (0.036% topical, day 16, 8 sections) 42.31%. Where the note is “arbutin 3 mg/ml, conessine and licorice 0.36 mg/ml, extract 1:50”, the “effectiveness as depigmenting agent (comparison)” value is “more effective than either Licorice extract or arbutin”. For the same molecule, the “pigmentation by light microscopy” value (conessine 0.036% (0.36 mg/ml), extract diluted 1:50, 25 μl topical, days 13 and 16) is on record as “strikingly decreased; also recorded: becomes lighter”. For the setting “conessine and licorice 0.36 mg/ml, extract diluted 1:50, 25 μl topical, days 13 and 16”, the “melanin content by Fontana-Masson staining” value is “significant decrease in the relative melanin content”.
